Consider 12 compounds from ChEMBL document CHEMBL4619795, “Establishing the Structure-Activity Relationship of Daptomycin” (ACS Med Chem Lett, 2020).

Broadly, the MIC is the least concentration at which growth counts as inhibited.

Common to all, as to format: functional
Test [1] has as its system Enterococcus faecalis. Nature of the test: Antibacterial activity against Enterococcus faecalis ATCC 29212 assessed as bacterial growth inhibition in presence of 50 ug/ml calcium ions by CLSI protocol based broth microdilution method. A general note: Dilution methods test growth across graded concentrations, often in twofold steps.
For test [2], the system named is Staphylococcus aureus. Nature of the test: Antibacterial activity against methicillin-resistant Staphylococcus aureus 88 assessed as bacterial growth inhibition in presence of 50 ug/ml calcium ions by CLSI protocol based broth microdilution method.
Test [3] has as its system Staphylococcus aureus. Nature of the test: Antibacterial activity against methicillin-resistant Staphylococcus aureus 86 assessed as bacterial growth inhibition in presence of 50 ug/ml calcium ions by CLSI protocol based broth microdilution method.
In test [4] the test system is Enterococcus faecalis. Nature of the test: Antibacterial activity against Streptococcus faecalis assessed as bacterial growth inhibition in presence of 50 ug/ml calcium ions by CLSI protocol based broth microdilution method.
For test [5], the system named is Enterococcus. Nature of the test: Antibacterial activity against Enterococcus 60 assessed as bacterial growth inhibition in presence of 50 ug/ml calcium ions by CLSI protocol based broth microdilution method.
The subject of test [6] is Staphylococcus aureus. Nature of the test: Antibacterial activity against methicillin-resistant Staphylococcus aureus 14 assessed as bacterial growth inhibition in presence of 50 ug/ml calcium ions by CLSI protocol based broth microdilution method.
Test [7] deals with Enterococcus. Nature of the test: Antibacterial activity against Enterococcus 6 assessed as bacterial growth inhibition in presence of 50 ug/ml calcium ions by CLSI protocol based broth microdilution method.
The test system of test [8] is Staphylococcus aureus. Nature of the test: Antibacterial activity against methicillin-resistant Staphylococcus aureus 11 assessed as bacterial growth inhibition in presence of 50 ug/ml calcium ions by CLSI protocol based broth microdilution method.
For test [9], the system named is Staphylococcus aureus. Nature of the test: Antibacterial activity against Staphylococcus aureus ATCC 29213 assessed as bacterial growth inhibition in presence of 50 ug/ml calcium ions by CLSI protocol based broth microdilution method.

Some results are limits rather than exact numbers.

Regarding `CCCCCCCCCC(=O)N[C@@H](Cc1c[nH]c2ccccc12)C(=O)N[C@@H](CC(N)=O)C(=O)N[C@@H](CC(=O)O)C(=O)N[C@@H]1C(=O)NCC(=O)N[C@@H](CCSC)C(=O)N[C@@H](CC(=O)O)C(=O)N[C@H](C)C(=O)N[C@@H](CC(=O)O)C(=O)NCC(=O)N[C@H](CO)C(=O)N[C@@H]([C@@H](C)CC(=O)O)C(=O)N[C@@H](CC(=O)c2ccccc2N)C(=O)O[C@@H]1C`, the MIC in the test on Enterococcus faecalis [1] is no less than 32 mg/L; in the test on Staphylococcus aureus [2] it was no less than 32 mg/L; in the test on Staphylococcus aureus [3], no less than 32 mg/L; with Enterococcus faecalis [4], no less than 32 mg/L; in the test on Enterococcus [5], 32 mg/L; in the test with Staphylococcus aureus [6], no less than 32 mg/L. Moreover, the MIC in the test with Enterococcus [7], with Staphylococcus aureus [8] and in the test with Staphylococcus aureus [9] was no less than 32 mg/L each time.
Regarding `CCCCCCCCCC(=O)N[C@@H](Cc1c[nH]c2ccccc12)C(=O)N[C@@H](CC(N)=O)C(=O)N[C@@H](CC(=O)O)C(=O)N[C@@H]1C(=O)NCC(=O)N[C@@H](CO)C(=O)N[C@@H](CC(=O)O)C(=O)N[C@H](C)C(=O)N[C@@H](CC(=O)O)C(=O)NCC(=O)N[C@H](CO)C(=O)N[C@@H]([C@@H](C)CC(=O)O)C(=O)N[C@@H](CC(=O)c2ccccc2N)C(=O)O[C@@H]1C`, the MIC in the test on Enterococcus faecalis [1] was no less than 32 mg/L; in the test on Staphylococcus aureus [2] it was 1 mg/L; in the test with Staphylococcus aureus [3], 2 mg/L; in the test on Enterococcus faecalis [4], 4 mg/L; in the test with Enterococcus [5] it was no less than 32 mg/L; with Staphylococcus aureus [6], 4 mg/L. Further, the MIC with Enterococcus [7] is 32 mg/L; in the test with Staphylococcus aureus [8] it was 4 mg/L; with Staphylococcus aureus [9] it was 2 mg/L.
For the compound `C[C@H]1NC(=O)[C@H](CC(=O)O)NC(=O)[C@H](CCCN)NC(=O)CNC(=O)[C@@H](NC(=O)[C@H](CC(=O)O)NC(=O)[C@H](CC(N)=O)NC(=O)[C@H](Cc2c[nH]c3ccccc23)NC(=O)c2ccc(C#Cc3ccc(-c4ccccc4)cc3)cc2)[C@@H](C)OC(=O)[C@H](CC(=O)c2ccccc2N)NC(=O)[C@H]([C@@H](C)CC(=O)O)NC(=O)[C@@H](CO)NC(=O)CNC(=O)[C@H](CC(=O)O)NC1=O`, the MIC with Enterococcus faecalis [1] was found to be 0.5 mg/L; with Staphylococcus aureus [2], 1 mg/L; in the test with Staphylococcus aureus [3], 2 mg/L; with Enterococcus faecalis [4] it was 2 mg/L; in the test on Enterococcus [5] it was 2 mg/L; in the test on Staphylococcus aureus [6], 1 mg/L. Further, the MIC in the test with Enterococcus [7] stood at 0.5 mg/L; in the test on Staphylococcus aureus [8], 1 mg/L; with Staphylococcus aureus [9], 2 mg/L.
Take `CCCCCCCCCC(=O)N[C@@H](Cc1c[nH]c2ccccc12)C(=O)N[C@@H](CC(N)=O)C(=O)N[C@@H](CC(=O)O)C(=O)N[C@@H]1C(=O)NCC(=O)N[C@@H](CCC(N)=O)C(=O)N[C@@H](CC(=O)O)C(=O)N[C@H](C)C(=O)N[C@@H](CC(=O)O)C(=O)NCC(=O)N[C@H](CO)C(=O)N[C@@H]([C@@H](C)CC(=O)O)C(=O)N[C@@H](CC(=O)c2ccccc2N)C(=O)O[C@@H]1C`: the MIC in the test with Enterococcus faecalis [1] was no less than 32 mg/L; in the test on Staphylococcus aureus [2], 4 mg/L; with Staphylococcus aureus [3], 4 mg/L; with Enterococcus faecalis [4] it was no less than 32 mg/L; with Enterococcus [5], no less than 32 mg/L; in the test with Staphylococcus aureus [6] it was no less than 32 mg/L. For the same compound, the MIC was no less than 32 mg/L in the test with Enterococcus [7], no less than 32 mg/L in the test with Staphylococcus aureus [8] and 4 mg/L with Staphylococcus aureus [9].
On to `CCCCCCCCCC(=O)N[C@@H](Cc1c[nH]c2ccccc12)C(=O)N[C@@H](CC(N)=O)C(=O)N[C@@H](CC(=O)O)C(=O)N[C@@H]1C(=O)NCC(=O)N[C@@H](CCCN)C(=O)N[C@@H](CC(=O)O)C(=O)N[C@H](C)C(=O)N[C@@H]([C@H](C)CC(=O)O)C(=O)NCC(=O)N[C@H](CO)C(=O)N[C@@H](CC(=O)O)C(=O)N[C@@H](CC(=O)c2ccccc2N)C(=O)O[C@@H]1C`, for which the MIC with Enterococcus faecalis [1], in the test with Staphylococcus aureus [2], with Staphylococcus aureus [3], in the test on Enterococcus faecalis [4], in the test on Enterococcus [5] and in the test with Staphylococcus aureus [6] was no less than 32 mg/L each time. The MIC with Enterococcus [7], with Staphylococcus aureus [8] and in the test on Staphylococcus aureus [9] was no less than 32 mg/L in each case.
As to `CCCCCCCCCC(=O)N[C@@H](Cc1c[nH]c2ccccc12)C(=O)N[C@@H](CC(N)=O)C(=O)N[C@@H](CC(=O)O)C(=O)N[C@@H]1C(=O)NCC(=O)N[C@@H](CCCN)C(=O)N[C@@H](CC(=O)O)C(=O)N[C@H](C)C(=O)N[C@@H](C(C)CC(=O)O)C(=O)NCC(=O)N[C@H](CO)C(=O)N[C@@H](C(C)CC(=O)O)C(=O)N[C@@H](CC(=O)c2ccccc2N)C(=O)O[C@@H]1C` (single isomer, unassigned), the MIC in the test with Enterococcus faecalis [1], in the test on Staphylococcus aureus [2], in the test on Staphylococcus aureus [3], in the test with Enterococcus faecalis [4], in the test with Enterococcus [5] and in the test on Staphylococcus aureus [6] was no less than 32 mg/L in each case. Moreover, the MIC in the test with Enterococcus [7], in the test on Staphylococcus aureus [8] and with Staphylococcus aureus [9] was no less than 32 mg/L each time.
With `CCCCCCCCCC(=O)N[C@@H](Cc1c[nH]c2ccccc12)C(=O)N[C@@H](CC(N)=O)C(=O)N[C@@H](CC(=O)O)C(=O)N[C@@H]1C(=O)NCC(=O)N[C@@H](Cc2ccccc2)C(=O)N[C@@H](CC(=O)O)C(=O)N[C@H](C)C(=O)N[C@@H](CC(=O)O)C(=O)NCC(=O)N[C@H](CO)C(=O)N[C@@H]([C@@H](C)CC(=O)O)C(=O)N[C@@H](CC(=O)c2ccccc2N)C(=O)O[C@@H]1C`, the MIC in the test with Enterococcus faecalis [1] is no less than 32 mg/L; in the test on Staphylococcus aureus [2] it was 16 mg/L; in the test on Staphylococcus aureus [3] it was 16 mg/L; with Enterococcus faecalis [4], no less than 32 mg/L; in the test with Enterococcus [5], no less than 32 mg/L; in the test on Staphylococcus aureus [6], no less than 32 mg/L. Moreover, the values for the MIC in the test on Enterococcus [7], in the test with Staphylococcus aureus [8] and with Staphylococcus aureus [9] were no less than 32 mg/L, no less than 32 mg/L and 16 mg/L, respectively.
Consider `CCCCCCCCCC(=O)N[C@@H](Cc1c[nH]c2ccccc12)C(=O)N[C@@H](CC(N)=O)C(=O)N[C@@H](CC(=O)O)C(=O)N[C@@H]1C(=O)NCC(=O)N[C@@H](CCCN)C(=O)N[C@@H](CC(=O)O)C(=O)N[C@H](C)C(=O)N[C@@H](CC(=O)O)C(=O)NCC(=O)N[C@H](CO)C(=O)N[C@@H]([C@@H](C)CC(=O)O)C(=O)N[C@@H](C)C(=O)O[C@@H]1C`, for which the MIC in the test on Enterococcus faecalis [1], in the test on Staphylococcus aureus [2], in the test on Staphylococcus aureus [3], with Enterococcus faecalis [4], in the test with Enterococcus [5] and with Staphylococcus aureus [6] was no less than 32 mg/L throughout. Besides, the minimal inhibitory concentration (MIC) in the test on Enterococcus [7], with Staphylococcus aureus [8] and with Staphylococcus aureus [9] was no less than 32 mg/L in each case.
For `CCCCCCCCCC(=O)N[C@@H](Cc1c[nH]c2ccccc12)C(=O)N[C@@H](CC(N)=O)C(=O)N[C@@H](CC(=O)O)C(=O)N[C@@H]1C(=O)NCC(=O)N[C@@H](CCCN)C(=O)N[C@@H](CC(=O)O)C(=O)N[C@H](C)C(=O)N[C@@H](CC(N)=O)C(=O)NCC(=O)N[C@H](CO)C(=O)N[C@@H]([C@@H](C)CC(=O)O)C(=O)N[C@@H](CC(=O)c2ccccc2N)C(=O)O[C@@H]1C`, the MIC in the test with Enterococcus faecalis [1] is no less than 32 mg/L; with Staphylococcus aureus [2], 16 mg/L; in the test on Staphylococcus aureus [3], 32 mg/L; in the test on Enterococcus faecalis [4] it was no less than 32 mg/L; in the test with Enterococcus [5], no less than 32 mg/L; in the test with Staphylococcus aureus [6], no less than 32 mg/L. Moreover, the MIC with Enterococcus [7] was no less than 32 mg/L; in the test on Staphylococcus aureus [8] it was no less than 32 mg/L; with Staphylococcus aureus [9], 16 mg/L.
With `CCCCCCCCCC(=O)N[C@@H](Cc1c[nH]c2ccccc12)C(=O)N[C@@H](CC(N)=O)C(=O)N[C@@H](CC(=O)O)C(=O)N[C@@H]1C(=O)NCC(=O)N[C@@H](Cc2c[nH]cn2)C(=O)N[C@@H](CC(=O)O)C(=O)N[C@H](C)C(=O)N[C@@H](CC(=O)O)C(=O)NCC(=O)N[C@H](CO)C(=O)N[C@@H]([C@@H](C)CC(=O)O)C(=O)N[C@@H](CC(=O)c2ccccc2N)C(=O)O[C@@H]1C`, the MIC was no less than 32 mg/L in the test on Enterococcus faecalis [1]; 8 mg/L in the test with Staphylococcus aureus [2]; 8 mg/L with Staphylococcus aureus [3]; no less than 32 mg/L in the test on Enterococcus faecalis [4]; no less than 32 mg/L in the test on Enterococcus [5]; 16 mg/L with Staphylococcus aureus [6]. The minimum inhibitory concentration (MIC) is no less than 32 mg/L in the test on Enterococcus [7], 16 mg/L in the test on Staphylococcus aureus [8] and 8 mg/L in the test on Staphylococcus aureus [9].
Turning to `CCCCCCCCCC(=O)N[C@@H](Cc1c[nH]c2ccccc12)C(=O)N[C@@H](CC(N)=O)C(=O)N[C@@H](CC(=O)O)C(=O)N[C@@H]1C(=O)NCC(=O)N[C@@H](CCCNC(=N)N)C(=O)N[C@@H](CC(=O)O)C(=O)N[C@H](C)C(=O)N[C@@H](CC(=O)O)C(=O)NCC(=O)N[C@H](CO)C(=O)N[C@@H]([C@@H](C)CC(=O)O)C(=O)N[C@@H](CC(=O)c2ccccc2N)C(=O)O[C@@H]1C`, the MIC in the test on Enterococcus faecalis [1] was no less than 32 mg/L; in the test with Staphylococcus aureus [2], 1 mg/L; with Staphylococcus aureus [3], 2 mg/L; in the test on Enterococcus faecalis [4], 8 mg/L; with Enterococcus [5], 16 mg/L; in the test with Staphylococcus aureus [6] it was 16 mg/L. The MIC with Enterococcus [7] was determined as 32 mg/L; in the test on Staphylococcus aureus [8], 8 mg/L; with Staphylococcus aureus [9] it was 2 mg/L.
As for `C[C@H]1NC(=O)[C@H](CC(=O)O)NC(=O)[C@H](CCCN)NC(=O)CNC(=O)[C@@H](NC(=O)[C@H](CC(=O)O)NC(=O)[C@H](CC(N)=O)NC(=O)[C@H](Cc2c[nH]c3ccccc23)NC(=O)c2ccc(C#CC#Cc3ccccc3)cc2)[C@@H](C)OC(=O)[C@H](CC(=O)c2ccccc2N)NC(=O)[C@H]([C@@H](C)CC(=O)O)NC(=O)[C@@H](CO)NC(=O)CNC(=O)[C@H](CC(=O)O)NC1=O`, the minimal inhibitory concentration (MIC) in the test on Enterococcus faecalis [1] is 1 mg/L; with Staphylococcus aureus [2] it was 0.5 mg/L; with Staphylococcus aureus [3], 0.5 mg/L; in the test with Enterococcus faecalis [4] it was 1 mg/L; with Enterococcus [5], 1 mg/L; with Staphylococcus aureus [6], 0.5 mg/L. The MIC is 4 mg/L in the test with Enterococcus [7], 1 mg/L in the test on Staphylococcus aureus [8] and 0.5 mg/L in the test on Staphylococcus aureus [9].
